From patent US20080021055A1, “Novel cycloalkyl derivatives as inhibitors of bone resorption and vitronectin receptor antagonists” (Aventis Pharma S.A., priority 1996, published 2008) come the findings set out here.

The target of this test is T1, vitronectin receptor αvβ3 (Homo sapiens, UniProt P05106+P06756).
T1 construct: expressed in transfected cells
Kind of test: Vn/293 cell test: inhibition of the binding of 293 cells to human vitronectin. Type of test: cell-based. As to conditions: 293 cells cotransfected with αv and β3 subunits, binding to plates coated with human vitronectin, 90 min at 37° C. From the text:
The inhibitory action of the compounds according to the invention against the vitronectin receptor […] can be determined, for example, as described below:
Test for the measurement of the inhibition of the binding of 293 cells to human vitronectin (abbreviated in the test results to Vn/293 cell test)
1. Purification of Human Vitronectin
Human vitronectin was isolated from human plasma and purified by affinity chromatography according to the method of Yatohyo et al., Cell Structure and Function, 1988, 23, 281-292.
293 cells, a human embryonic kidney cell line, which were cotransfected with DNA sequences for the αv and β3 subunits of the vitronectin receptor were selected according to the FACS method with a view to a high expression rate (>500,000 αvβ3 receptors/cell). The selected cells were cultured and sorted again by means of FACS to obtain a stable cell line (15 D) with expression rates of >1,000,000 copies of αvβ3 per cell.
A Linbro 96-well tissue culture plate with a flat bottom was coated overnight at 4° C. with human vitronectin (0.01 mg/ml, 0.05 ml/well) in phosphate-buffered saline solution (PBS) and then blocked with 0.5% strength BSA. […] The reaction was stopped with a glycine (50 mmol)/EDTA (5 mmol) buffer (pH 10.4) and the absorption of each well was measured at 405-650 nm. The data were evaluated using standard methods.

T1 sequence (P06756 31-889 limits assumed): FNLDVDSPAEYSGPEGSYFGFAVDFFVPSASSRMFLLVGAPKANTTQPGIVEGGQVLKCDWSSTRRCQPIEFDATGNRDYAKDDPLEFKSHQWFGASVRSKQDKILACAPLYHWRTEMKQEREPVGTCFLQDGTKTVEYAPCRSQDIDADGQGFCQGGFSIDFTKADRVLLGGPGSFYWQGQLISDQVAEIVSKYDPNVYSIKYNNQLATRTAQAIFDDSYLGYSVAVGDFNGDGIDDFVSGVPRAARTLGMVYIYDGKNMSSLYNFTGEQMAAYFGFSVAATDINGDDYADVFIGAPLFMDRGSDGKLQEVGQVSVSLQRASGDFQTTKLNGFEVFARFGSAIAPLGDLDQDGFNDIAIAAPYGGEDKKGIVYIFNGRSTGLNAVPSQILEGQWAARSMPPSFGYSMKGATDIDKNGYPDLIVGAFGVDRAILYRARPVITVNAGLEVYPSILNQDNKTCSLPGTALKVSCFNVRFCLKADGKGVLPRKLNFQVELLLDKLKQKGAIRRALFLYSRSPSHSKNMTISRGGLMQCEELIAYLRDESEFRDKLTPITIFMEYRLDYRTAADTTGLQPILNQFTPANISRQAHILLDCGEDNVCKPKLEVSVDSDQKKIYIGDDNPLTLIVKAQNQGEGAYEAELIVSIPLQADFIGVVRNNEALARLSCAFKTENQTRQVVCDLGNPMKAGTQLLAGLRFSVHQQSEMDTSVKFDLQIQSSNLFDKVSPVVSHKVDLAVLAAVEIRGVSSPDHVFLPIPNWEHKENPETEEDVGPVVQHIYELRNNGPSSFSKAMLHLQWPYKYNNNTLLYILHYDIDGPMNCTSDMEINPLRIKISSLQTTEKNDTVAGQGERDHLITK
T1 sequence (P06756 891-1048 limits assumed): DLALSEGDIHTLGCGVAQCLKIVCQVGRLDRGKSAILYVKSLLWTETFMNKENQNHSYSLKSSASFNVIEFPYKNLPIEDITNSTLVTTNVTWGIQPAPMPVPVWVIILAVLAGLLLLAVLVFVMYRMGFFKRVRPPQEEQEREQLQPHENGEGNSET
T1 sequence (P05106 27-788): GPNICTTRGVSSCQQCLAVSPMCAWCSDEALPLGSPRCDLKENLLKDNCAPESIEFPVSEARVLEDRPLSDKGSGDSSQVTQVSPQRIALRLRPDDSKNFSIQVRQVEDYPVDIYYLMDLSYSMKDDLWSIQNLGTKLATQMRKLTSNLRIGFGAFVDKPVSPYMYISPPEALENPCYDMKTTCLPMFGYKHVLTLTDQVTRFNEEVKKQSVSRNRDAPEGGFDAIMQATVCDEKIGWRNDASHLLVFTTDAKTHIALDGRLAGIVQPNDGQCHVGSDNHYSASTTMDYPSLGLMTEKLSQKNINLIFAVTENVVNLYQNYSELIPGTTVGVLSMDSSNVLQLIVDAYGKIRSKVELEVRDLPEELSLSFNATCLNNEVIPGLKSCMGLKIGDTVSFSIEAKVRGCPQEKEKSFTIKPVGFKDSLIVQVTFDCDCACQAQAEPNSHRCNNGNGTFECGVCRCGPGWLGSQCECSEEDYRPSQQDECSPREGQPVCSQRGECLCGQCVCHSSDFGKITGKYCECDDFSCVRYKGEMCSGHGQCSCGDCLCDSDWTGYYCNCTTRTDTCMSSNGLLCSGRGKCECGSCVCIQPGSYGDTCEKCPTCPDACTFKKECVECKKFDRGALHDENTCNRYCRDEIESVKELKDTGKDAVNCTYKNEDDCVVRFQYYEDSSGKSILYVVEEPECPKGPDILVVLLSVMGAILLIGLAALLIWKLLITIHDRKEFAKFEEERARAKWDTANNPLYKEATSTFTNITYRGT

A word on the IC50: it is the midpoint of a concentration-inhibition curve. Read a low IC50 as greater potency in that assay. Consider `N=C(N)NC(=O)CCCOc1ccc(C[C@H](NC(=O)OCC23CC4CC(CC(C4)C2)C3)C(=O)O)cc1` [Example 1, (2S)-2-(1-Adamantylmethyloxycarbonylamino)-3-(4-(3-guanidinocarbonylpropyloxy)phenyl)propionic acid], for which the IC50 was determined as 32 nM.

On to `O=C(CCc1ccc(C(=O)NC[C@H](NC(=O)OCC23CC4CC(CC(C4)C2)C3)C(=O)O)cc1)NC1=NCCCN1` [Example 3, (2S)-2-(1-Adamantylmethyloxycarbonylamino)-3-(4-(2-(1,4,5,6-tetra-hydropyrimidin-2-ylcarbamoyl)ethyl)benzoylamino)propionic acid], for which the IC50 was determined as 32 nM.
